Results on 22 compounds are retold here after patent US8163793B2, “Proline derivatives” (Hoffman-La Roche Inc., priority 2009, dated 2012).

The target of one assay is Cathepsin S (UniProt P25774). The assay is described as follows: Cathepsin enzyme inhibition assay (fluorogenic peptide substrate Z-Val-Val-Arg-AMC), Cathepsin S. The class given is biochemical, human and mouse. The following applies: enzyme 1 nM, substrate 20 μM, pH 6.5; read-out: CatS IC50. An outline of the steps:
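Compounds were combined with 1 nM human or mouse enzyme, and substrate then started the reaction. The buffer was potassium phosphate (100 mM, pH 6.5) containing EDTA-Na 5 mM, Triton X-100 0.001% and […] 5 mM.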

The target in another assay is Cat L (UniProt P07711). The assay is described as follows: Cathepsin enzyme inhibition assay (fluorogenic peptide substrate Z-Val-Val-Arg-AMC), Cathepsin L. The following applies: for IC50: enzyme 1 nM, substrate 20 μM, pH 6.5, read-out: CatL IC50. The class given is biochemical, human and mouse. The method, boiled down:
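Fluorogenic cleavage of Z-Val-Val-Arg-AMC (20 μM) by 1 nM Cat L was monitored at ex 360/em 465 nm for 20 min, the linear phase. The buffer was 100 mM potassium phosphate pH 6.5 with 5 mM EDTA and DTT. IC50 values were derived by standard methods, in μM.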

SMILES strings stand for the structures. Where a name gives a salt, the structure may show the parent alone. Bounds are passed on as bounds.

In the case of `Cc1cc(N2C[C@H](S(C)(=O)=O)C[C@H]2C(=O)NC2(C#N)CC2)n(CC(F)(F)F)n1` [Example 466, (2S,4R)-4-Methanesulfonyl-1-[5-methyl-2-(2,2,2-trifluoro-ethyl)-2H-pyrazol-3-yl]-pyrrolidine-2-carboxylic acid (1-cyano-cyclopropyl)-amide], the IC50 at Cathepsin S was found to be 8600 nM. Also, the “CatL, % @25 uM” value on Cat L (@25 uM compound) was found to be 95% @25 uM.

For the compound `CCN1C[C@H](S(=O)(=O)c2ccccc2Cl)C[C@H]1C(=O)NC1(C#N)CC1` [Example 83, (2S,4R)-4-(2-Chloro-benzenesulfonyl)-1-ethyl-pyrrolidine-2-carboxylic acid (1-cyano-cyclopropyl)-amide], the IC50 was found to be 30.5 nM at Cathepsin S and 62100 nM at Cat L.

Turning to `Cn1cc(-c2ccc(S(=O)(=O)[C@@H]3C[C@@H](C(=O)NC4(C#N)CC4)N(C(=O)C4(C)CC4)C3)c(C(F)(F)F)c2)cn1` [Example 249, (2S,4R)-1-(1-Methyl-cyclopropanecarbonyl)-4-[4-(1-methyl-1H-pyrazol-4-yl)-2-trifluoromethyl-benzenesulfonyl]-pyrrolidine-2-carboxylic acid (1-cyano-cyclopropyl)-amide], the IC50 turned out to be 0.255 nM at Cathepsin S and 25800 nM at Cat L.

Take `N#CC1(NC(=O)[C@@H]2C[C@@H](S(=O)(=O)c3ccc(N4CCC4)cc3Cl)CN2C(=O)C2(c3ccc(Cl)cc3)CC2)CC1` [Example 328, (2S,4R)-4-(4-Azetidin-1-yl-2-chloro-benzenesulfonyl)-1-[1-(4-chloro-phenyl)-cyclopropanecarbonyl]-pyrrolidine-2-carboxylic acid (1-cyano-cyclopropyl)-amide]: the half-inhibitory concentration (IC50) on Cathepsin S came out at 0.16 nM; on Cat L, 130 nM.

For `N#CC1(NC(=O)[C@@H]2C[C@@H](S(=O)(=O)c3ccc(-n4cccn4)cc3Cl)CN2)CC1` [Example 128, (2S,4R)-4-(2-Chloro-4-pyrazol-1-yl-benzenesulfonyl)-pyrrolidine-2-carboxylic acid (1-cyano-cyclopropyl)-amide], the 50% inhibitory concentration (IC50) on Cathepsin S came out at 1.4 nM; at Cat L, 17300 nM.

Consider `N#CC1(NC(=O)[C@@H]2C[C@@H](S(=O)(=O)c3ccccc3Cl)CN2C(=O)C2(CO)CC2)CC1` [Example 452, (2S,4R)-4-(2-Chloro-benzenesulfonyl)-1-(1-hydroxymethyl-cyclopropanecarbonyl)-pyrrolidine-2-carboxylic acid (1-cyano-cyclopropyl)-amide], for which the IC50 on Cathepsin S is 1.17 nM; at Cat L, 7930 nM.

Consider `CN1CCC[C@H]1C(=O)N1C[C@H](S(=O)(=O)c2ccccc2Cl)C[C@H]1C(=O)NC1(C#N)CC1` [Example 81, (R)-4-(2-Chloro-benzenesulfonyl)-1-((S)-1-methyl-pyrrolidine-2-carbonyl)-pyrrolidine-2-carboxylic acid (1-cyano-cyclopropyl)-amide formiate], for which the IC50 on Cathepsin S turned out to be 3.2 nM; on Cat L, 6030 nM.

Consider `CC1(C(=O)N2C[C@H](S(=O)(=O)c3ccc(-c4ccc(F)cc4F)cc3C(F)(F)F)C[C@H]2C(=O)NC2(C#N)CC2)CC1` [Example 259, (2S,4R)-4-(2′,4′-Difluoro-3-trifluoromethyl-biphenyl-4-sulfonyl)-1-(1-methyl-cyclopropanecarbonyl)-pyrrolidine-2-carboxylic acid (1-cyano-cyclopropyl)-amide], for which the IC50 on Cathepsin S stood at 0.19 nM; on Cat L, 79500 nM.

Regarding `CC(C)(C)OC(=O)N1C[C@H](S(=O)(=O)c2ccc(OCC(F)(F)F)cc2Cl)C[C@H]1C(=O)NC1(C#N)CC1` [Example 171, (2S,4R)-4-[2-Chloro-4-(2,2,2-trifluoro-ethoxy)-benzenesulfonyl]-2-(1-cyano-cyclopropylcarbamoyl)-pyrrolidine-1-carboxylic acid tert.-butyl ester], the IC50 is 7 nM on Cathepsin S and no less than 25000 nM on Cat L.

Regarding `Cc1csc(C2(C(=O)N3C[C@H](S(=O)(=O)c4ccccc4Cl)C[C@H]3C(=O)NC3(C#N)CC3)CC2)n1` [Example 413, (2S,4R)-4-(2-Chloro-benzenesulfonyl)-1-[1-(4-methyl-thiazol-2-yl)-cyclopropanecarbonyl]-pyrrolidine-2-carboxylic acid (1-cyano-cyclopropyl)-amide], the IC50 turned out to be 0.31 nM at Cathepsin S and 1100 nM on Cat L.

As for `N#CC1(NC(=O)[C@@H]2C[C@@H](S(=O)(=O)c3ccc(OCC(F)(F)F)cc3Cl)CN2C(=O)C2(c3cccc(Cl)c3)CC2)CC1` [Example 331, (2S,4R)-1-[1-(3-Chloro-phenyl)-cyclopropanecarbonyl]-4-[2-chloro-4-(2,2,2-trifluoro-ethoxy)-benzenesulfonyl]-pyrrolidine-2-carboxylic acid (1-cyano-cyclopropyl)-amide], the IC50 on Cathepsin S worked out at 0.18 nM; at Cat L, 1050 nM.

Turning to `Cc1cc(N2C[C@H](S(=O)(=O)c3ccccc3C(F)(F)F)C[C@@H]2C(=O)NC2(C#N)CC2)n(CCc2ccccc2)n1` [Example 338, (2R,4R)-1-(5-Methyl-2-phenethyl-2H-pyrazol-3-yl)-4-(2-trifluoromethyl-benzenesulfonyl)-pyrrolidine-2-carboxylic acid (1-cyano-cyclopropyl)-amide], the half-inhibitory concentration (IC50) at Cathepsin S was 375 nM; on Cat L it was no less than 25000 nM.

Consider `N#CCNC(=O)C12CC(F)(F)CN1CCC2S(=O)(=O)c1ccccc1` (centres unmarked) [Example 116, 1-Benzenesulfonyl-6,6-difluoro-tetrahydro-pyrrolizine-7a-carboxylic acid cyanomethyl-amide, diasteromer Δ1], for which the IC50 at Cathepsin S is 35.5 nM; on Cat L it was no less than 25000 nM.

On to `C[C@H](Oc1ccc(S(=O)(=O)[C@@H]2C[C@@H](C(=O)NC3(C#N)CC3)N(C(=O)C(C)(C)C)C2)c(Cl)c1)C(F)(F)F` [Example 203, (2S,4R)-4-[2-Chloro-4-((S)-2,2,2-trifluoro-1-methyl-ethoxy)-benzenesulfonyl]-1-(2,2-dimethyl-propionyl)-pyrrolidine-2-carboxylic acid (1-cyano-cyclopropyl)-amide], for which the figures for the concentration for half-maximal inhibition (IC50) on Cathepsin S and on Cat L were 0.8 nM and 9330 nM, respectively.

With `N#CC1(NC(=O)[C@@H]2C[C@@H](S(=O)(=O)c3ccc(N4CCC(F)(F)C4)cc3Cl)CN2)CC1` [Example 136, (2S,4R)-4-[2-Chloro-4-(3,3-difluoro-pyrrolidin-1-yl)-benzenesulfonyl]-pyrrolidine-2-carboxylic acid (1-cyano-cyclopropyl)-amide formiate], the IC50 on Cathepsin S was found to be 2.2 nM; on Cat L it was 12600 nM.

In the case of `N#CC1(NC(=O)[C@@H]2C[C@@H](S(=O)(=O)c3ccccc3)CN2C(=O)C2(c3ccc(Cl)cc3)CC2)CC1` [Example 457, (2S,4R)-1-(1-(4-chlorophenyl)cyclopropanecarbonyl)-N-(1-cyanocyclopropyl)-4-(phenylsulfonyl)pyrrolidine-2-carboxamide], the results for the IC50 on Cathepsin S and on Cat L were 34000 nM and 530 nM, respectively.

Turning to `N#CC1(NC(=O)[C@@H]2C[C@@H](S(=O)(=O)c3ccc(OCC(F)(F)F)cc3Cl)CN2C(=O)C2(c3cccc(Br)c3)CC2)CC1` [Example 332, (2S,4R)-1-[1-(3-Bromo-phenyl)-cyclopropanecarbonyl]-4-[2-chloro-4-(2,2,2-trifluoro-ethoxy)-benzenesulfonyl]-pyrrolidine-2-carboxylic acid (1-cyano-cyclopropyl)-amide], the values for the half-inhibitory concentration (IC50) at Cathepsin S and on Cat L were 0.195 nM and 580 nM, respectively.

As for `N#CC1(NC(=O)[C@@H]2C[C@@H](S(=O)(=O)c3ccccc3Cl)CN2CC(F)(F)F)CC1` [Example 89, (2S,4R)-4-(2-Chloro-benzenesulfonyl)-1-(2,2,2-trifluoro-ethyl)-pyrrolidine-2-carboxylic acid (1-cyano-cyclopropyl)-amide], the IC50 at Cathepsin S was 110 nM; at Cat L it was no less than 25000 nM.

For `N#CC1(NC(=O)[C@H]2C[C@@H](S(=O)(=O)c3ccc(N4CCOCC4)cc3Cl)CN2C(=O)C2(C(F)(F)F)CC2)CC1` [Example 162, (2R,4R)-4-(2-Chloro-4-morpholin-4-yl-benzenesulfonyl)-1-(1-trifluoromethyl-cyclopropanecarbonyl)-pyrrolidine-2-carboxylic acid (1-cyano-cyclopropyl)-amide], the IC50 is 23.5 nM at Cathepsin S and no less than 25000 nM on Cat L.

`Cc1nccn1-c1ccc(S(=O)(=O)[C@H]2CN[C@H](C(=O)NC3(C#N)CC3)C2)c(C(F)(F)F)c1` [Example 24, (2S,4R)-4-[4-(2-M ethyl-imidazol-1-yl)-2-trifluoromethyl-benzenesulfonyl]-pyrrolidine-2-carboxylic acid (1-cyano-cyclopropyl)-amide hydrochloride]: the IC50 on Cathepsin S was 2.6 nM; at Cat L, no less than 25000 nM.

On to `CC(C)(C)OC(=O)N1CCC(N2CC(S(=O)(=O)c3ccccc3C(F)(F)F)CC2C(=O)NC2(C#N)CC2)CC1` (centres unmarked) [Example 364, 4-[2-(1-Cyano-cyclopropylcarbamoyl)-4-(2-trifluoromethyl-benzenesulfonyl)-pyrrolidin-1-yl]-piperidine-1-carboxylic acid tert-butyl ester], for which the results for the IC50 on Cathepsin S and at Cat L were 295 nM and no less than 25000 nM, respectively.

For the compound `Cc1cc(N2C[C@H](S(=O)(=O)c3ccc(N4CC(F)(F)C4)cc3C(F)(F)F)C[C@H]2C(=O)NC2(C#N)CC2)n(C2CCC2)n1` [Example 415, (2S,4R)-1-(2-Cyclobutyl-5-methyl-2H-pyrazol-3-yl)-4-[4-(3,3-difluoro-azetidin-1-yl)-2-trifluoromethyl-benzenesulfonyl]-pyrrolidine-2-carboxylic acid (1-cyano-cyclopropyl)-amide], the figures for the IC50 on Cathepsin S and at Cat L were 0.215 nM and 11700 nM, respectively.
